PMC3534288 (BMC Biophysics, 2012)
Where two headings read alike, the source gives them in different places. Blank lines part the entries; values can stand above or below the compound they belong to.

Assays:
[1] = sulfonamide group, 25°C; cited from earlier work
[2] = Protonation of inhibitor sulfonamide group (ITC titration with acid, pKa); assay type: physicochemical
Method: Dissection of contribution from inhibitor protonation requires a set of experiments with pure inhibitor in the absence of protein to determine the pKa and the enthalpy of inhibitor protonation. The deprotonation pKa could be determined by pH titration as previously explained. The enthalpy of protonation is determined by titrating alkaline solution of the inhibitor with acid. […] Pure crystalline inhibitor is in protonated electrostatically neutral form. Therefore, 1.5 equivalent of NaOH is added to the inhibitor solution to make it deprotonated. […] This enthalpy of the second transition is the enthalpy of interest.

hCA XIII [3] = target: T1, hCA XIII (Homo sapiens, UniProt Q8N1Q1); assay: Isothermal titration calorimetry (ITC) of inhibitor binding to hCA XIII, observed parameters
T1 construct: made in house; host or cells: Escherichia coli
T1 sequence (Q8N1Q1 whole entry): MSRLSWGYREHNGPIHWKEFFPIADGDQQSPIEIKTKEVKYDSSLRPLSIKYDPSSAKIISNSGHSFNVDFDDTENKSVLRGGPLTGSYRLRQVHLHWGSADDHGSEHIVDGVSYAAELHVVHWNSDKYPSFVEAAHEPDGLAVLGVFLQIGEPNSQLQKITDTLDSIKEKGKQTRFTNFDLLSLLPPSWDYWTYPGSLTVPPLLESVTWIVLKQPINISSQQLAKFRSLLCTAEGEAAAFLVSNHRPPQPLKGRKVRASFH
Method: ITC experiments were performed using a VP-ITC instrument (Microcal, Inc., GE-Healthcare, Northampton, MA, USA). For ligand-protein binding experiments 5–20 μM (usually 10) protein solution in the cell and 50–200 μM (usually 100) ligand solution in the syringe were used. A typical experiment consisted of 25–30 injections (usually 25), 10 μL each, with 3–5 min (usually 4 min) intervals between injections. Experiments were performed at different temperatures in various buffers containing 50 mM NaCl and 0.5-2% DMSO concentration. All experiments were repeated at least twice. For the determination of ligand binding at various pHs, the solution pH was carefully checked in the presence of protein and ligand, in the cell and syringe, respectively.

hCA XIII [4] = target: T1, hCA XIII; assay: Intrinsic binding parameters by dissection of binding-linked protonation reactions; settings: deprotonated inhibitor anion to protonated zinc-bound water form, 25°C
From the text: Here we use the same formalism to dissect protonation reactions as previously described. The intrinsic binding constant is related to the observed binding constant and the fractions of active binding species:
(1) Kb=Kb_obs/fRSO2NH^−fCAZnH2O
Where the fractions deprotonated sulfonamide and protonated CA as a function of pH are:
(4) ΔbHintr=ΔbHobs−ninhΔb_proton_inhH−nCAΔb_proton_CAH+nΔb_proton_bufH
The intrinsic entropy of binding was obtained by subtracting Gibbs free energy from the enthalpy using standard thermodynamic equations. The intrinsic heat capacity of binding could be determined by carrying out all or part of ITC and TSA experiments at several temperatures.

CA II = settings: pH 7.0; read-out: observed Kis and Kds; cited from earlier work

SMILES: CCOc1ccc2nc(S(N)(=O)=O)sc2c1 [EZA, ethoxzolamide]
pKa [1]: 8.0
Δb_protonCp ([2]; slope of protonation enthalpy versus temperature): 88.7 J/(mol × K)
Ka ([2]; sulfonamide group, 25°C): 10 nM
TΔb_protonS ([2]; sulfonamide group, 25°C): 3.87 kcal/mol
Δb_protonG ([2]; sulfonamide group, 25°C): -10.9 kcal/mol
Δb_protonH ([2]; sulfonamide group, 25°C): -7.05 kcal/mol
Δb_protonS ([2]; sulfonamide group, 25°C): 54.2 J/(mol × K)

net number of uptaken or released protons upon binding (hCA XIII [3]; pH 7.0, 25°C, slope of observed enthalpy versus buffer protonation enthalpy): approximately equal to zero
observed enthalpies of binding, span over pH and buffers (hCA XIII [3]; sodium phosphate and TRIS chloride buffers, 25°C, as a function of pH): −10 to −70 kJ/mol
TΔbSintr (hCA XIII [4]): 2.44 kcal/mol
ΔbGintr (hCA XIII [4]): -10.5 kcal/mol
ΔbHintr (hCA XIII [4]): -8.01 kcal/mol
ΔbSintr (hCA XIII [4]): 34.3 J/(mol × K)
SMILES: NS(=O)(=O)C(F)(F)F [TFMSA, trifluoromethanesulfonamide]

SMILES: CS(N)(=O)=O [methanesulfonamide]
Kd (CA II): 300 µM

TΔbSintr (hCA XIII [4]): -2.13 kcal/mol
ΔbGintr (hCA XIII [4]): -9.92 kcal/mol
ΔbHintr (hCA XIII [4]): -12 kcal/mol
ΔbSintr (hCA XIII [4]): −29.8 J/(mol × K)
SMILES: CC(=O)Nc1nnc(S(N)(=O)=O)s1 [AZM, acetazolamide]
Ka [1]: 50 nM
TΔb_protonS [1]: 4.47 kcal/mol
pKa [1]: 7.30
Δb_protonG [1]: -9.97 kcal/mol
Δb_protonH [1]: -5.5 kcal/mol
Δb_protonS [1]: 62.6 J/(mol × K)
